{
  "source": "patent US20190201419A1",
  "about": "“COMPOUND AND METHOD FOR THE TREATMENT AND DIAGNOSIS OF NEURODEGENERATIVE CONDITIONS” (Swansea University, priority 2013, published 2019)",
  "key": {"Islet-1": {"tested_on": "Islet-1", "experiment": "Islet-1 expression in Tg[Isl1:GFP] zebrafish embryos", "assay_type": "in vivo", "settings": "10 μM", "method": "(§1) Quantitative PCR, Total RNA was extracted from SN4741. cells and zebrafish treated with the compounds of interest using the RNeasy Mini Kit (Qiagen), 1 μg was treated with RQ1 RNase-free DNase (Promega) and reverse transcribed using SuperScript II Reverse Transcriptase (invitrogen) and random primers (invitrogen) (RT+reaction). Parallel reactions without reverse transcriptase enzyme were done as a control (RT−reaction), and Sybergreen real-time quantitative PCR assays were performed. Expression levels were obtained by normalization with the Value of the housekeeping gene encoding actin obtained for every sample in parallel assays.\nZebrafish Strain and Maintenance Zebrafish were raised on a 14/10 h day/night cycle and were kept at 28.5 ° C. Islet-1:GFP transgenic embryos were obtained via natural spawning and staged in hours or days post fertilization (hpf and dpt) according to Kimmel et al). Embryos older than 24 hpf were treated with 0.03% phenylthiourea (PTU) to inhibit pigmentation. MO injections were performed using splice site specific zebrafish lxi MO MO injected embryos were immediately dechorionated and transferred to a 96 well plate and exposed to dimethyl sulfoxide (DMSO) treated or ligand treated medium. Compound Exposure. Islet-1:GFP embryos were collected by natural mating and immediately (at 1 cell stage) dechorionated and transferred to a 96 well plate. Each of the compounds tested were obtained as 10 mM stock and diluted in embryo medium to a final concentration of 10 μM, and 200 μL was added to each well. DMSO or propan-2-ol treated embryo medium was taken as control. Ligand solutions were replaced every 12 h with fresh ligand solution prepared in PTU treated embryo medium. Embryos were collected at 48 hpf, fixed for 4 h at room temperature with 4% paraformaldehyde and then washed and kept in PBST. Immunocytochemistry was performed using an anti-GFP antibody and fluorescence was viewed and photographed using a Zeiss Axioplan compound microscope and a Zeiss Axiocam digital camera."}, "abca1": {"tested_on": "abca1", "experiment": "abca1 expression in zebrafish embryos", "assay_type": "in vivo", "settings": "10 μM", "method": "as §1\nZebrafish Strain and Maintenance Zebrafish were raised on a 14/10 h day/night cycle and were kept at 28.5 ° C. Islet-1:GFP transgenic embryos were obtained via natural spawning and staged in hours or days post fertilization (hpf and dpt) according to Kimmel et al). Embryos older than 24 hpf were treated with 0.03% phenylthiourea (PTU) to inhibit pigmentation. […] Immunocytochemistry was performed using an anti-GFP antibody and fluorescence was viewed and photographed using a Zeiss Axioplan compound microscope and a Zeiss Axiocam digital camera."}},
  "data": [
    {"compound": "CC(CCC[C@@H](C)[C@H]1CC[C@H]2[C@@H]3[C@H](O)C=C4C[C@@H](O)CC[C@]4(C)[C@H]3CC[C@]12C)C(=O)O", "note": "(stereo partly drawn) [3β,7α-diHCA, 3β,7α-dihydroxycholest-5-en-26-oic acid]", "values": [
      {"measurement": "Islet-1 mRNA and protein level (qPCR, western blot)", "setting": "Islet-1", "value": "accompanied by an increase in the level of Islet-1 mRNA and protein"},
      {"measurement": "Islet-GFP expression", "setting": "Islet-1; embryos 48 hpf", "value": "increased Islet-GFP expression"},
      {"measurement": "Number of Islet1+ cells in cranial nerves (III, IV, V, VII, X)", "setting": "Islet-1; embryos 48 hpf", "value": "had no significant effect on the number of Islet1+cells"},
      {"measurement": "Islet-GFP levels after lxr morpholino injection", "setting": "Islet-1; lxr MO vs control scrambled MO", "value": "lxr MO injections abolished the in vivo increase in Islet-GFP levels"},
      {"measurement": "abca1 expression", "setting": "abca1", "value": "enhanced expression of abca1"}
    ]}
  ]
}
